In patent publication US20240226053A9, “Compositions for ophthalmic care” (ReBio Technologies Oy, priority 2021, published 2024):
Each block holds one compound with its values, some of them ahead of it.

Experiments:
rat eyes = assay: Tolerability of intravitreally injected DMSO in rat eyes; format: in vivo; conditions: intravitreal, 3 μl, 60%, 1/10 and 1/100 dilution, monitored two weeks
Description: In order to test the tolerability of DMSO in eye, DMSO (USP, Ph. Eur.) was injected to the rat eyes intravitreally using 34 G needle The injected volume was 3 μl and three concentrations were injected; 60%, 1/10 dilution, 1/100 dilution. Used Ph. Eur. grade DMSO was 0.2 μm Filter sterilized in Class 5 isolator before the injection.
The rats were monitored for two weeks using the following endpoints: • fundus imaging, including blood vessels • cloudiness and other symptoms in the anterior part of the eye • optic nerve head • state of the vasculature in the posterior eye segment (FAG) • ERG • intraocular pressure • retinal thickness with OCT • histology (in the end)

[1] = Hydrolysis of latanoprost to latanoprost acid in porcine vitreous; format: in vitro ADME
Description: Porcine vitreous was mixed with Hanks' balanced salt solution containing 50 mM Hepes (HBSS-buffer, pH 7.4) at and vitreous mix (200 μl) was pipetted to 96-well plates. The plates were incubated at +37° C. and 5% CO2 with mild shaking for one hour to equilibrate the pH of vitreous into neutral range (pH 7.3-7.5). After incubation, 50 μl of 50 μg/mL latanoprost was added to plates and mixed. The final vitreous/buffer ratio was 1:1 and latanoprost concentration 10 μg/mL Latanoprost was incubated in vitreous at +37° C. and 5% CO2 with mild shaking and samples were collected at time points (0, 1, 2, 4, 6, 24, 29, 48 hours). At each time point the 150 μl of the sample was mixed by vortexing with the 150 μl acetonitrile. The samples were stored at −20° C. until HPLC analysis.
(§1) Hydrolysis of latanoprost was evaluated in buffer and in vitreous with pH adjusted to 7.4.
First hydrolysis of latanoprost was evaluated in buffer and in vitreous with pH adjusted to 7.4 and non pH adjusted.

[2] = Drug release from implant in porcine vitreous vs. PBS; conditions: 35.5° C., 35% PLGA9010/60% DMSO/4% b-HPCD, 180 μg latanoprost
Description: These tests were carried out to ensure that the latanoprost released from the implant would go through hydrolysis to latanoprost acid, which is the active form of the molecule. Purpose of this study was also study the conversion rate of latanoprost to latanoprost acid. In addition, the release of latanoprost from ReBio test formulations was evaluated in vitreous vs. in PBS.
Next the drug release from implant was also tested in porcine vitreous vs. PBS(=phosphate buffered saline).
Formulation composition in this example was 35% PLGA9010/60% DMSO/4% b-HPCD—180 μg Latanoprost.

[3] = Chemical stability of latanoprost in HBSS-buffer; format: physicochemical; conditions: HBSS-buffer pH 7.4, +37° C., 48 h
Description: Chemical stability of latanoprost was studied simultaneously in HBSS-buffer, pH 7.4, using the same protocol but replacing the vitreous with the buffer.
as §1

[4] = Solubility of regorafenib in water and PBS; format: physicochemical
Description: Solubility of regorafenib in water and PBS is negligible. Thus, Tween80 was added in PBS to increase solubility in the dissolution media. Regorafenib in vitro release studies from PGLA/DMSO ISFI were carried out in sink conditions, 2-5 ml PBS pH 7.2 (+Tween80 0.05%) in plastic and glass vessels at 35.5° C. (estimated at 10 mm depth in eye) and 60 rpm, orbit 61 mm in dark.

Compound: C[S+](C)[O-] [DMSO, dimethylsulfoxide]
adverse effects in eye (rat eyes): No adverse effect

amount of latanoprost acid in vitreous over time ([1]; porcine vitreous, 48 h experiment): steadily increased | conversion of released latanoprost to acid form in PBS [2]: did not change to its acid form | latanoprost acid formation in mere buffer [3]: No latanoprost acid was formed
Compound: CC(C)OC(=O)CCC/C=C\C[C@@H]1[C@@H](CC[C@@H](O)CCc2ccccc2)[C@H](O)C[C@@H]1O [latanoprost, Latanoprost]
rate constant of latanoprost acid formation in vitreous (zero-order kinetics) ([1]; porcine vitreous/HBSS buffer 1:1, pH adjusted to 7.4, +37° C., latanoprost 10 μg/mL, 48 h): 0.111 µg/h

solubility in water and PBS [4]: negligible
Compound: CNC(=O)c1cc(Oc2ccc(NC(=O)Nc3ccc(Cl)c(C(F)(F)F)c3)c(F)c2)ccn1 [regorafenib, Regorafenib]
